# Where two headings read alike, the source gives them in different places.
# What was measured:
# [1] = CCI rats, cited from earlier work
# [2] = sometimes fatally; U.S. Food and Drug Administration; cited from earlier work
# [3] = Rat Hot Plate; type: in vivo
# [4] = Mouse antiphenylquinone writhing (PQW) test; type: in vivo; conditions: Mus musculus
# Description: (§1) The anti-phenylquinone writhing (PQW) test modified from the methods of Siegmund et al. (Proc. Soc. Exp. Biol. Med. 95: 729-731, 1957) and Blumberg et al. (Proc. Exp. Biol. Med. 118: 763-767, 1965) was used to assess the relief from the simulated symptoms of neuropathic pain in mice. Male CF1 mice (Charles River Breeding Laboratories, Wilmington, Mass.), fasted for 16-22 hours and weighing 18-23 g, were injected with randomized and coded doses of test compounds, then challenged with 1.25 mg/kg i.p. phenyl-p-benzoquinone (phenylquinone) 5 minutes prior to the specified observation time. The phenylquinone solution (0.1 mg/ml in 5% aqueous ethanol) was prepared daily and stored in foil-wrapped amber bottles to limit degradation. Mice were observed 10 minutes for the presence or absence of the characteristic abdominal constriction and stretching response beginning 30 minutes after injection of the test compound. Activity was calculated as the percentage of mice failing to respond to the phenylquinone challenge dose. […] Median effective doses (ED50's) and 95% confidence limits were determined numerically by the methods of Thompson (Bacteriological Rev. 11: 115-145, 1947), and Litchfield and Wilcoxon (J. Pharmacol. Exp. Ther. 96: 99-113, 1949).
# [5] = Mouse Tail-Flick; type: in vivo; conditions: Mus musculus; read-out: Mouse Tail-Flick ED50 (unit inferred)
# [6] = Formalin model; type: in vivo; conditions: rat, versus saline control
# Excerpt: Formalin induces inflammatory stimulation of peripheral nerves that results in sensitization of CNS nociceptive transmission pathways. There are two phases of formalin-induced nociception: phase I—an acute nociceptive component; and phase II—a chronic nociceptive component characterized by hyperalgesia.
# On the morning of formalin testing, a small metal band (0.5 g) was loosely placed around the right hind paw. The rat was placed in a cylindrical Plexiglas chamber for adaptation for a minimum of 30 minutes. Compound A, venlafaxine or a saline control was administered into the dorsal surface of the right hindpaw of the rat. The animal was then placed into the chamber of the automated formalin apparatus where movement of the formalin-injected paw was monitored and the number of paw flinches tallied by minute over the next sixty minutes. Upon completion of the test the animal was removed and euthanized.
# [7] = Rat PQW; type: in vivo; conditions: Rattus norvegicus
# Description: as §1
# [8] = Rat Tail-Flick; type: in vivo
# [9] = Chung model (tactile allodynia); type: in vivo, rat; conditions: rat; two hours post injection; doses 200 mg/kg and 100 mg/kg
# Description: This model for neuropathic pain was performed on rats using the surgical procedure described by Kim and Chung (1992) to induce an allodynic state. Briefly, the left L-5 and L-6 spinal nerves were isolated adjacent to the vertebral column and ligated with 6-0 silk suture distal to the dorsal root ganglion under isoflurane anesthesia. This model allows for spinal cord structural reorganization and growth of low threshold mechnoreceptor fibers from the spinal cord with synaptic connections and rewiring of the dorsal horn. This leads to spontaneous firing of invading sympathetic nerves and upregulation of receptors and voltage-dependent channels; i.e. mimics the development of allodynia (nociceptive response to a previously neutral stimulus). The rats were allowed a minimum of 7-days postoperative recovery period before testing.
# To assess tactile thresholds in the Chung model, rats were placed in a clear plastic, wire mesh-bottomed cage, divided into individual compartments. Animals were allowed to acclimate and then baseline thresholds were assessed prior to drug treatment. To assess the 50% mechanical threshold for paw withdrawal, von Frey hairs were applied to the plantar mid-hindpaw, avoiding the tori (footpads). The eight von Frey hairs used are designated by [log (10*force required to bend hair, mg)] and range from 0.4-15.1 grams (#'s 3.61-5.18). Each hair was pressed perpendicularly against the paw with sufficient force to cause slight bending, and held for approximately 6-8 seconds. A positive response was noted if the paw was sharply withdrawn. Flinching immediately upon removal of the hair was also considered a positive response. Absence of a response (“−”) was cause to present the next consecutive stronger stimulus; a positive response (“+”) was cause to present the next weaker stimulus. Stimuli were presented successively until either six data points were collected, or the maximum or minimum stimulus was reached. If a minimum stimulus was reached and positive responses still occurred, the threshold was assigned an arbitrary minimum value of 0.25 grams; if a maximum stimulus was presented and no response occurred, a maximum threshold value of 15 grams was assigned. If a change in response occurs, either “−” to “+” or “+” to “−”, causing a change in the direction of stimulus presentation from descending to ascending or vice-versa, four additional data points were collected subsequent to the change.
# [10] = tested on: GABA receptors; conditions: cited from earlier work
# [11] = tested on: subunit of a voltage-gated calcium channel; conditions: cited from earlier work
# [12] = intraperitoneal, high doses of up to 600 mg/kg
# [13] = intraperitoneal 10 to 75 mg/kg, at two and four hours
smiles,measurement,setting,value
CCN1CCC(c2cccc(Cl)c2)(C(C)O)CC1 (stereo not shown),melting point,,89 to 94 °C
CN1CCC(c2cccc(Cl)c2)(C(C)(C)O)C1 (stereo not shown),melting point,,98 to 99 °C
CC(O)C1(c2cccc(Cl)c2)CCCN(C)CC1 (stereo not shown),melting point,,123 to 124 °C
"NC(=O)OCC(COC(N)=O)c1ccccc1 [Felbamate, felbamate]",heat hyperalgesia,[1]; [12],completely abolished
same,hindpaw guarding,[1]; [12],completely abolished
same,mechanical allodynia,[1]; [12],completely abolished
same,mechanical hyperalgesia,[1]; [12],completely abolished
same,responses in the control hindpaw,[1]; intraperitoneal,unaffected
same,toxicity in humans,[2],liver failure and aplastic anemia
"COc1cccc(C2(O)CCCCC2CN(C)C)c1 (stereo not shown) [TRAMADOL, Tramadol, reference compound]",ED50,[3]; Rattus norvegicus,40 mg/kg
same,ED50,[4],7.8 mg/kg
same,ED50,[5],31.2 mg/kg
"COc1ccc(C(CN(C)C)C2(O)CCCCC2)cc1 (stereo not shown) [Venlafaxine, reference compound]","formalin test, paw flinches, phase I",[6]; all administered doses (200/100/50 mg per kg),statistically significant effects
same,"formalin test, paw flinches, phase II",[6]; all administered doses,statistically significant effects only during phases I and IIA
same,"formalin test, paw flinches, phase IIA",[6]; all administered doses,statistically significant effects
same,"formalin test, paw flinches, Phase IIB",[6],No statistical significance
same,Rat Hot Plate ED50,[3]; rat,Inactive
same,ED50,[7],39.2 mg/kg
same,Rat Tail-Flick,[8],Inactive
same,effects on tactile allodynia,[9],statistically significant effects
NCC1(CC(=O)O)CCCCC1 [gabapentin],effect on GABA receptors,[10],no direct effect
same,responses on the control side,[1],no significant change
same,heat hyperalgesia,[1]; [13],suppressed
same,mechanical allodynia,[1]; [13],suppressed
same,mechanical hyperalgesia,[1]; intraperitoneal 10 to 75 mg/kg,lacked effect
same,responses at 24 hours,"[1]; intraperitoneal, 24 hours",abnormal responses had returned
same,pattern of effects after intrathecal injection,"[1]; intrathecal to the lumbar spinal cord, 37.5 to 150 mcg/kg",the pattern was similar
same,binding to a subunit of a voltage-gated calcium channel,[11],binds with high affinity
